Results reported in ChEMBL document CHEMBL5050844 (2019).

Legend:
[1] = Induction of anti-CD3/CD28 antibodies-stimulated human T cell activation at 4 uM assessed fold increase in IL-2 secretion measured by ELISA assay; format: functional, T cell line
[2] = Induction of anti-CD3/CD28 antibodies-stimulated human T cell activation at 1 uM assessed fold increase in IL-2 secretion measured by ELISA assay; format: functional, T cell line
[3] = Induction of anti-CD3/CD28 antibodies-stimulated human T cell activation at 0.3 uM assessed fold increase in IL-2 secretion measured by ELISA assay; format: functional, T cell line
[4] = Induction of anti-CD3/CD28 antibodies-stimulated human T cell activation at 4 uM assessed fold increase in CD25 expression measured by ELISA assay; format: functional, T cell line
[5] = Induction of anti-CD3/CD28 antibodies-stimulated human T cell activation at 1 uM assessed fold increase in CD25 expression measured by ELISA assay; format: functional, T cell line
[6] = Induction of anti-CD3 antibodies-stimulated human T cell activation at 8 uM assessed fold increase in CD25 expression measured by ELISA assay; format: functional, T cell line; also: reference of the scale not given here
[7] = Induction of anti-CD3 antibodies-stimulated human T cell activation at 1 uM assessed fold increase in CD25 expression measured by ELISA assay; format: functional, T cell line; also: reference of the scale not given here
[8] = Induction of anti-CD3/CD28 antibodies-stimulated human CD4+ T cell activation at 10 uM assessed fold increase in CD69 expression measured by flow cytometry analysis; format: functional, T cell line
[9] = Induction of anti-CD3/CD28 antibodies-stimulated human CD4+ T cell activation at 1.11 uM assessed fold increase in CD69 expression measured by flow cytometry analysis; format: functional, T cell line
[10] = Induction of anti-CD3/CD28 antibodies-stimulated human CD4+ T cell activation at 10 uM assessed fold increase in cell proliferation measured by flow cytometry analysis; format: functional, T cell line
[11] = Induction of anti-CD3/CD28 antibodies-stimulated human CD4+ T cell activation at 1.11 uM assessed fold increase in cell proliferation measured by flow cytometry analysis; format: functional, T cell line
[12] = Induction of anti-CD3/CD28 antibodies-stimulated human CD8+ T cell activation at 10 uM assessed fold increase in CD69 expression measured by flow cytometry analysis; format: functional, T cell line
[13] = Induction of anti-CD3/CD28 antibodies-stimulated human CD8+ T cell activation at 10 uM assessed fold increase in cell proliferation measured by flow cytometry analysis; format: functional, T cell line
[14] = Induction of anti-CD3/CD28 antibodies-stimulated human CD8+ T cell activation at 1.11 uM assessed fold increase in cell proliferation measured by flow cytometry analysis; format: functional, T cell line
[15] = Induction of anti-CD3 antibodies-stimulated human CD4+ T cell activation at 1.11 uM assessed fold increase in CD69 expression measured by flow cytometry analysis; format: functional, T cell line; also: reference of the scale not given here
[16] = Induction of anti-CD3 antibodies-stimulated human CD8+ T cell activation at 10 uM assessed fold increase in CD69 expression measured by flow cytometry analysis; format: functional, T cell line; also: reference of the scale not given here
[17] = Induction of anti-CD3 antibodies-stimulated human CD8+ T cell activation at 1.11 uM assessed fold increase in CD69 expression measured by flow cytometry analysis; format: functional, T cell line; also: reference of the scale not given here
[18] = Induction of anti-CD3/CD28 antibodies-stimulated human T cell activation at 1.11 uM assessed fold increase in GM-CSF secretion measured by ELISA assay; format: functional, T cell line
[19] = Induction of anti-CD3 antibodies-stimulated human T cell activation at 1.11 uM assessed fold increase in GM-CSF secretion measured by ELISA assay; format: functional, T cell line; also: reference of the scale not given here
[20] = Induction of anti-CD3/CD28 antibodies-stimulated human T cell activation at 10 uM assessed fold increase in TNF-alpha secretion measured by ELISA assay; format: functional, T cell line
[21] = Induction of anti-CD3/CD28 antibodies-stimulated human T cell activation at 1.11 uM assessed fold increase in TNF-alpha secretion measured by ELISA assay; format: functional, T cell line
[22] = Induction of anti-CD3 antibodies-stimulated human T cell activation at 10 uM assessed fold increase in TNF-alpha secretion measured by ELISA assay; format: functional, T cell line; also: reference of the scale not given here
[23] = Induction of anti-CD3 antibodies-stimulated human T cell activation at 1.11 uM assessed fold increase in TNF-alpha secretion measured by ELISA assay; format: functional, T cell line; also: reference of the scale not given here
[24] = Induction of anti-CD3 antibodies-stimulated human T cell activation at 1.11 uM assessed fold increase in IFN-gamma secretion measured by ELISA assay; format: functional, T cell line; also: reference of the scale not given here
[25] = Induction of allogenic human T cell activation at 10 uM assessed fold increase in cell proliferation; format: functional, T cell line
[26] = Induction of allogenic human T cell activation at 3 uM assessed fold increase in cell proliferation; format: functional, T cell line
[27] = Induction of anti-CD3 antibodies-stimulated human exhausted T cell activation assessed fold increase in IFN-gamma secretion measured by ELISA assay; format: functional, T cell line; also: reference of the scale not given here
[28] = Induction of anti-CD3 antibodies-stimulated human exhausted T cell activation assessed fold increase in IL-2 secretion measured by ELISA assay; format: functional, T cell line; also: reference of the scale not given here
[29] = Induction of anti-CD3/CD28 antibodies-stimulated human anergic T cell activation at 10 uM assessed fold increase in IFN-gamma secretion measured by ELISA assay; format: functional, T cell line
[30] = Induction of anti-CD3/CD28 antibodies-stimulated human anergic T cell activation at 1.11 uM assessed fold increase in IFN-gamma secretion measured by ELISA assay; format: functional, T cell line
[31] = Induction of anti-CD3/CD28 antibodies-stimulated human anergic T cell activation at 0.37 uM assessed fold increase in IFN-gamma secretion measured by ELISA assay; format: functional, T cell line
B cell = test: Induction of anti-IgM-stimulated human CD20+ B cell activation at 10 to 1000 uM assessed as increase in CD69 expression measured as mean fluorescence intensity AUC by flow cytometry analysis; format: functional, cell-based; details: dose 10-1000 µM
[32] = Induction of activation of human CD56+ CD3- NK cells co-cultured with human K562 cells in 1:1 ratio and assessed as increase in IFN-gamma secretion at 10 uM measured by ELISA assay; format: functional, Natural killer cell
[33] = Induction of activation of human CD56+ CD3- NK cells co-cultured with human K562 cells in 1:1 ratio and assessed as increase in TNF-alpha secretion at 10 uM measured by ELISA assay; format: functional, Natural killer cell
[34] = Induction of activation of human CD56+ CD3- NK cells co-cultured with human K562 cells in 1:1 ratio and assessed as increase in IFN-gamma secretion at 2.5 uM measured by ELISA assay; format: functional, Natural killer cell
[35] = Induction of activation of human CD56+ CD3- NK cells co-cultured with human K562 cells in 1:1 ratio and assessed as increase in IFN-gamma secretion at 0.625 uM measured by ELISA assay; format: functional, Natural killer cell
[36] = Induction of activation of human CD56+ CD3- NK cells co-cultured with human K562 cells in 1:1 ratio and assessed as increase in TNF-alpha secretion at 2.5 uM measured by ELISA assay; format: functional, Natural killer cell
[37] = Induction of activation of human CD56+ CD3- NK cells co-cultured with human K562 cells in 1:1 ratio and assessed as increase in TNF-alpha secretion at 0.625 uM measured by ELISA assay; format: functional, Natural killer cell

SMILES	fold change (FC) [1]	fold change (FC) [2]	fold change (FC) [3]	fold change (FC) [4]	fold change (FC) [5]	fold change (FC) [6]	fold change (FC) [7]	fold change (FC) [8]	fold change (FC) [9]	fold change (FC) [10]	fold change (FC) [11]	fold change (FC) [12]	fold change (FC) [13]	fold change (FC) [14]	fold change (FC) [15]	fold change (FC) [16]	fold change (FC) [17]	fold change (FC) [18]	fold change (FC) [19]	fold change (FC) [20]	also measured
Cn1cnnc1C(F)(F)[C@](C)(F)c1cccc(N2Cc3c(cc(CN4CC[C@@H](C#N)C4)cc3C(F)(F)F)C2=O)c1	>=7.5	>=7.5	5	1.31	1.31	>=1.001	0.801	1.401	1.201	>4	>4	1.201	>4	3.01	1.401	1.401	1.201	2.01	1.51	2.01	fold change (FC) [21]: 2.01; fold change (FC) [22]: 2.01; fold change (FC) [23]: <=1.5; fold change (FC) [24]: 2.01; fold change (FC) [25]: <=2; fold change (FC) [26]: <=2; fold change (FC) [27]: >1.61; fold change (FC) [28]: <=2.5; fold change (FC) [29]: >4.01; fold change (FC) [30]: 2.51; fold change (FC) [31]: <=2.5; AUC (B cell): 1.01; fold change (FC) [32]: >=5; fold change (FC) [33]: >=5; fold change (FC) [34]: >=5; fold change (FC) [35]: 2.01; fold change (FC) [36]: 2.01; fold change (FC) [37]: 1.01
C[C@H](Cc1nncn1C)c1cccc(N2Cc3c(cccc3C(F)(F)F)C2=O)c1.Cl	5	2.51	1.01	>=1.76	1.51	>=1.001	0.601	1.201	<=1.2	3.01	<=2	1.201	2.01	<=2	<=1.2	<=1.2	<=1.2	<=1.5	<=1.5	1.51	fold change (FC) [21]: <=1.5; fold change (FC) [22]: <=1.5; fold change (FC) [23]: <=1.5; fold change (FC) [24]: <=2; fold change (FC) [25]: <=2; fold change (FC) [26]: <=2; fold change (FC) [27]: <=1.4; fold change (FC) [28]: <=2.5; fold change (FC) [29]: <=2.5; fold change (FC) [30]: 2.51; fold change (FC) [31]: <=2.5; AUC (B cell): 1.01; fold change (FC) [32]: 2.01; fold change (FC) [33]: <=1; fold change (FC) [34]: 1.01; fold change (FC) [35]: 1.01; fold change (FC) [36]: 1.01; fold change (FC) [37]: 1.01
C[C@H](Cc1nncn1C)c1cccc(NC(=O)c2nc(C(F)(F)F)c[nH]2)c1	2.51	2.51	1.01	1.01	1.01	>=1.001	0.801	1.401	1.201	>4	2.01	1.201	3.01	2.01	1.201	1.201	<=1.2	1.51	1.51	2.01	fold change (FC) [21]: <=1.5; fold change (FC) [22]: 1.51; fold change (FC) [23]: <=1.5; fold change (FC) [24]: <=2; fold change (FC) [25]: <=2; fold change (FC) [26]: <=2; fold change (FC) [27]: >1.61; fold change (FC) [28]: >3.01; fold change (FC) [29]: 2.51; fold change (FC) [30]: <=2.5; fold change (FC) [31]: <=2.5; AUC (B cell): < 0.5; fold change (FC) [32]: 2.01; fold change (FC) [33]: 2.01; fold change (FC) [34]: 1.01; fold change (FC) [35]: 2.01; fold change (FC) [36]: 2.01; fold change (FC) [37]: 1.01
